Measurements from patent US7074823B2, “Fluorescent probe for zinc” (Daiichi Pure Chemical Co., Ltd., priority 2000, dated 2006).
Values belong to the compound of their own block, whether it stands above or below them.

Experiments:
[1] = conventional probes, short wavelength excitation light; cited from earlier work
[2] = Changes with time in fluorescence intensity after addition of zinc ion; details: 5 μM compound, zinc ion 5 μM or 50 μM, 100 mM HEPES pH 7.5
Experimental: Zinc ion (final concentration 5 μM or 50 μM) was added in 100 mM HEPES (pH 7.5) containing 5 μM Compound 6, Compound 12, or ACF-1 (a compound having a cyclic polyamine moiety described as Compound (20) in Example 1 in Japanese Patent Application No. (Hei) 11-40325) to measure fluorescence intensity. The fluorescence intensity was measured at the excitation wavelength of 491 nm and the fluorescence wavelength of 513 nm for Compound 6, the excitation wavelength of 492 nm and the fluorescence wavelength of 514 nm for Compound 12, and the excitation wavelength of 495 nm and the fluorescence wavelength of 515 nm for ACF-1. In the figure, the ordinate axis represents relative fluorescence intensity. […] Accordingly, the use of the compound according to the present invention enables very quick detection of zinc, and also enables the detection of rapid change in the concentration of zinc.

[3] = Selectivity for zinc ions: fluorescence intensity in buffer containing various metal ions; details: 1 μM compound
Experimental: Compound 6 obtained in Example 1 and Compound 12 obtained in Example 2 were used to evaluate selectivity for zinc ions. 5 μM of Compound 6 or Compound 12 was added in 100 mM HEPES buffer (pH 7.5) containing various metal ions (5 μM or 5 mM). The fluorescence intensity was measured at the excitation wavelength of 491 nm and the fluorescence wavelength of 513 nm for Compound 6, and the excitation wavelength of 492 nm and the fluorescence wavelength of 514 nm for Compound 12. The results are shown in FIG. 1 (Compound 6) and FIG. 2 (Compound 12). 1 μM of Compound 21 was added in 100 mM HEPES buffer (pH 7.5) containing various metal ions (1 μM or 5 mM), and the fluorescence intensity was measured at the excitation wavelength of 505 nm and the fluorescence wavelength of 522 nm.
In the figures, the fluorescence intensities on the ordinate axis are shown as numerical values with addition of each metal ion relative to the fluorescence intensity without addition of metal ion which is taken as 1.

[4] = Changes in fluorescence intensity with relation to pH changes; format: physicochemical; details: pH of around 7.4 (intracellular pH)
Experimental: Changes in fluorescence intensity of Compound 12, Compound 21, and zinc complexes thereof were investigated with relation to pH changes. The fluorescence intensity was measured at the excitation wavelength of 492 nm and the fluorescence wavelength of 514 nm for Compound 12, and the excitation wavelength of 505 nm and the fluorescence wavelength of 522 nm for Compound 21.
Buffers used are as follows.
100 mM Cl2CHCOOH—Cl2CHCOONa buffer (pH 2.0)
100 mM ClCH2COOH—ClCH2COONa buffer (pH 3.0)
100 mM CHES buffer (pH 8.5)

SMILES: CN(C)c1cccc2c(S(=O)(=O)NCCN3CCNCCNCCNCC3)cccc12 [Dansylaminoethylcyclen]
excitation wavelength [1]: 323 nm

SMILES: COc1cc(NS(=O)(=O)c2ccc(C)cc2)c2ncccc2c1 [TSQ]
excitation wavelength [1]: 367 nm

SMILES: CN1CCN(C)CCN(c2ccc(-c3c4ccc(=O)cc-4oc4cc(O)ccc34)cc2)CCN(C)CC1 [ACF-1]
increase of fluorescence intensity with time after zinc ion addition [2]: not instantly increased

stability of fluorescence intensity to pH changes [4]: more stable than Compound 12
SMILES: O=C1C=C2Oc3cc(O)c(Cl)cc3C(c3ccc(NCCN(Cc4ccccn4)Cc4ccccn4)cc3C(=O)O)C2C=C1Cl (centres unmarked) [Compound 21]
selectivity for zinc ([3]; 100 mM HEPES buffer pH 7.5, various metal ions 1 μM or 5 mM): high selectivity
effect of sodium, potassium, calcium, magnesium on the increase in fluorescence intensity caused by zinc ([3]; HEPES pH 7.5): did not affect
increase in fluorescence intensity on addition of sodium, potassium, calcium and magnesium ([3]; metal ions at high concentration (5 mM), HEPES pH 7.5): almost no increase

SMILES: CCOC(=O)COc1cc(NS(=O)(=O)c2ccc(C)cc2)c2nc(C)ccc2c1 [Zinquin]
excitation wavelength [1]: 368 nm
